# According to patent US20100144543A1, “Epigenetic silencing of tumor suppressor genes” (The Salk Institute for Biological Studies, priority 2008, published 2010):
# Numbered stars: 1 amine (or outer) side, 2 acyl side, 3 side chain; on linkers, the order of the positions; unused ones are H or OH. Bridge positions count the residues as written; N and C are the ends. Square brackets hold non-standard residues; d marks the D form. Peptide text beside a SMILES is read from it. I, II: the chains in the order shown. Actinocin(9to1) = Cc1c2oc3c(C)ccc(C(=O)[*:1])c3nc-2c(C(=O)[*:2])c(N)c1=O; NMeV = CN[C@H](C(=O)O)C(C)C; Sar = CNCC(=O)O
# How the values were obtained:
# Format in all cases: cell-based, human
# p16 gene = assay: p16 mRNA induction after AZA treatment (RT-PCR, qPCR); settings: T47D cells treated with both AZA and Trichostatin A
# Excerpt: The p16 tumor suppressor gene is commonly silenced in numerous types of human cancers and remains a relevant therapeutic target of wide interest. One method that is extensively employed to restore p16 expression, both clinically and in vitro, is treatment of cancer cells with hypomethylating-nucleoside analogues such as 5′AZA-2′-deoxycytidine (AZA) (Otterson et al. (1995) “CDKN2 gene silencing in lung cancer by DNA hypermethylation and kinetics of p16INK4 protein induction by 5-aza 2′ deoxycytidine.” Oncogene 11: 1211-1216; Schrump et al. (2006) “Phase I study of decitabine-mediated gene expression in patients with cancers involving the lungs, esophagus, or pleura.” Clin Cancer Res 12: 5777-5785), which reverses DNA methylation. We reasoned that treatment of cells with AZA might also restore CTCF binding at the p16 upstream promoter through one of two mechanisms. First, CTCF is known to bind DNA in a methylation-sensitive fashion (Hark et al. (2000) “CTCF mediates methylation-sensitive enhancer-blocking activity at the H19/Igf2 locus.” Nature 405: 486-489); thus, demethylation of the p16 locus might allow CTCF to reassociate. […]
# CTCF = assay: PARlation status of CTCF, IP with anti-PAR antibody; settings: MDA-MB-435 cells, treated with 3-ABA for 24 hours
# Protocol: As described above, CTCF may be important for maintaining an active p16 gene. To further investigate possible CTCF defects that may impact its function in p16-silenced T47D breast cancer cells, we examined its post-translational modifications and association with several known protein interaction partners. […] In addition, western blots were performed to determine the protein levels of CTCF and putative interacting partners in MDA-MB-435 and T47D cells (FIG. 4B). […] Moreover, PARP-1 and Nucleolin appear to associate with CTCF in a mutually exclusive manner, with Nucleolin being present in CTCF complexes only in p16 expressing cells. To explore this further, we examined the PARlation status of CTCF in each cell type using an antibody that recognizes ADP-ribose polymers (PAR). Unexpectedly, we found PARlation associated with both CTCF and Nucleolin in p16-expressing MDA-MB-435 cells but not in p16-silenced TD47 cells (FIG. 4D, upper panels). […] Inputs are equal to 2.5% starting material.
# 2 mg of whole cell lysates were diluted in IP buffer with 0.5% Triton X-100. Protein mixes were pre-cleared for 1-2 hours with protein G Sepharose, after which the beads were removed and CTCF (Upstate) or anto-phosphotyrosine (Upstate) antibody added overnight at 4° C. to capture complexes. Complexes were recovered with protein G Sepharose, washed 4 times in IP buffer and subsequently analyzed by SDS-PAGE.
# p16 [1] = assay: qPCR expression analysis of CTCF target gene p16 upon inhibition of PARP activity; settings: MDA-MB-435 cells, 24 hours, 5 mM 3-ABA, normalized to c-Myc
# Protocol: (§1) Next, we examined whether PARlation of target proteins impacts the expression of CTCF-regulated tumor suppressor genes. To achieve this, we perturbed cellular PARlation activity in p16-expressing cells by two approaches: first, incubation with the broad-spectrum PARP inhibitor 3-ABA; and second, shRNA-mediated ablation of PARP-1. […] Results are normalized to c-Myc levels. Error bars represent ±standard deviation.
# (§2) PARP-1 knockdown was achieved using the MISSION™ Lentiviral shRNA system from Sigma. Lentiviral particles were packaged in HEK293T cells, with virus collected 24 hours post-transfection. Cells infected with shRNA-containing virus and polybrene were selected using puromycin at 72 hours post infection.
# RASSF1A [2] = assay: qPCR expression analysis of CTCF target gene RASSF1A upon inhibition of PARP activity; settings: MDA-MB-435 cells, 24 hours, 5 mM 3-ABA, normalized to c-Myc
# Protocol: as §1, §2
# p16 [3] = assay: Inhibition of transcription, RT-PCR of p16; settings: MDA-MB-435 cells, 24 hours, 2.5 μg/ml Actinomycin D or 1 μM Flavopiridol
# Excerpt: (§3) CTCF is a ubiquitous, multifunctional protein that has a critical role in organizing distinct chromosomal domains through boundary/insulator formation (Filippova et al. (2005) “Boundaries between chromosomal domains of X inactivation and escape bind CTCF and lack CpG methylation during early development.” Dev Cell 8: 31-42; Ishihara et al. (2006) “CTCF-dependent chromatin insulator is linked to epigenetic remodeling.” Mol Cell 23: 733-742; Splinter et al. (2006) “CTCF mediates long-range chromatin looping and local histone modification in the beta-globin locus.” Genes Dev 20: 2349-2354) and in repressing or activating transcription. Because we saw a pronounced change in chromatin structure upstream of the p16 gene when active or silenced (FIG. 1), we explored the possibility that CTCF can associate within this region. […] Yet, we detected CTCF binding at a well-characterized target gene, c-Myc, in both p16-expressing and non-expressing cell types. […] CTCF was immunoprecipitated and analyzed for association with the p16^INK4a and RASSF1A gene. […]
# (§4) MDA-MB-435 cells were treated with Flavopiridol (Sigma) or Actinomycin D (Sigma) at 1 μM and 2.5 μg/ml, respectively, for 24 hours. At this time cells were harvested and analyzed for gene expression and CTCF binding.
# RASSF1A [4] = assay: Inhibition of transcription, RT-PCR of RASSF1A; settings: MDA-MB-435 cells, 24 hours, 2.5 μg/ml Actinomycin D or 1 μM Flavopiridol
# Excerpt: as §3, §4
SMILES,p16 transcription (p16 [3]),RASSF1A transcription (RASSF1A [4]),further results
CC(/C=C/C(=O)NO)=C\[C@@H](C)C(=O)c1ccc(N(C)C)cc1 [Trichostatin A],,,synergistic p16 gene reactivation (p16 gene): No synergistic p16 gene reactivation
"NC(=O)c1cccc(N)c1 [3-ABA, 3-Aminobenzamide]",,,PARlation associated with CTCF and Nucleolin (CTCF): inhibited; p16 mRNA levels (p16 [1]): significant reduction; RASSF1A mRNA levels (RASSF1A [2]): dramatic decrease
CN1CC[C@H](c2c(O)cc(O)c3c(=O)cc(-c4ccccc4Cl)oc23)[C@H](O)C1 [Flavopiridol],inhibition,inhibition,
"Cc1c2oc3c(C)ccc(C(=O)N[C@@H]4C(=O)N[C@H](C(C)C)C(=O)N5CCC[C@H]5C(=O)N(C)CC(=O)N(C)[C@@H](C(C)C)C(=O)O[C@@H]4C)c3nc-2c(C(=O)N[C@@H]2C(=O)N[C@H](C(C)C)C(=O)N3CCC[C@H]3C(=O)N(C)CC(=O)N(C)[C@@H](C(C)C)C(=O)O[C@@H]2C)c(N)c1=O [Actinomycin D] (I: T[dV]P[Sar][NMeV] / II: T[dV]P[Sar][NMeV]; ester I:1-I:C, II:1-II:C; linker I:N-II:N via Actinocin(9to1))",inhibition,inhibition,
